Key:
Assay type in all cases: cell-based
Conditions in all cases: 48 hours
[1] = tested on: HT-29; test: In vitro cytotoxicity against human cancer cell lines (sulforhodamine B), HT-29
Description: (§1) In vitro cytotoxicity against human cancer cell lines: The human cancer cell lines procured from National Cancer Institute, Frederick, U.S.A or National Center for Cell Science; Pune, India. were used in present study. Cells were grown in tissue culture flasks in complete growth medium (RPMI-1640 medium with 2 mM glutamine, 100 μg/ml streptomycin, pH 7.4, sterilized by filtration and supplemented with 10% fetal calf serum and 100 units/ml penicillin before use) at 37° C. in an atmosphere of 5% CO2 and 90% relative humidity in a carbon dioxide incubator. The cells at subconfluent stage were harvested from the flask by treatment with trypsin (0.5% in PBS containing 0.02% EDTA) for determination of cytotoxicity. Cells with viability of more than 98% as determined by trypan blue exclusion were used for assay. Cell suspension of the required cell density were prepared in complete growth medium with gentamycin (50 μg/ml) for determination of cytotoxicity.
(§2) Stock solutions of (2×10–2 M of test material were prepared in DMSO (Dimethyl sulphoxide). The stock solutions were serially diluted with complete growth medium containing 50 μg/ml of gentamycin to obtain working test solutions of required concentrations.
(§3) In vitro cytotoxicity against human cancer cell lines was determined (Monks, A , Scudiero, D., Skehan, P., Shoemaker R., Paull, K., Vistica, D., Hose, C., Langley, j., Cronise, P., Vaigro-Wolff, A., Gray-Goodrich, M., Campbell, H., Mayo, J and Boyd m.J. Natl. Cancer Inst., 1991, 83, 757–766) using 96-well tissue culture plates. 100 μl of cell suspension was added to each well of the 96-well tissue culture plate. The cells were incubated for 24 hours. Test materials in complete growth medium (100 μl) were added after 24 hours incubation to the wells containing cell suspension. The plates were further incubated for 48 hours (at 37° C. in an atmosphere of […] 90% relative humidity in a carbon dioxide incubator) after addition of test material and then the cell growth was stopped by gently layering trichloroacetic acid (TCA, 50 μl, 50%) on top of the medium in all the wells. The plates were incubated at 4° C. for one hour to fix the cells attached to the bottom of the wells. The liquid of all the wells was gently pipetted out and discarded. The plates were washed five times with distilled water to remove TCA, growth medium low molecular weight metabolites, serum proteins etc and air-dried. Cell growth was measured by staining with sulforhodamine B dye (Skehan et al., 1990). The adsorbed dye was dissolved in Tris-Buffer (100 m l, 0.01M, pH 10.4) and plates were gently stirred for 5 minutes on a mechanical stirrer. The optical density was recorded on ELISA reader at 540 nm.
(§4) The cell growth was calculated by subtracting mean OD value of respective blank from the mean OD value of experimental set. Percent growth in presence of test material was calculated considering the growth in absence of any test material as 100% and in turn percent growth inhibition in presence of test material will be calculated.

[2] = tested on: HCT-15; test: In vitro cytotoxicity against human cancer cell lines (sulforhodamine B), HCT-15
Description: as §1, §2
as §3, with “The plates were washed five times with distilled water to remove TCA, growth medium low molecular weight metabolites, serum proteins etc and air-dried.” left out, “The adsorbed dye was dissolved in Tris-Buffer (100 m l, 0.01M, pH 10.4) and plates were gently stirred for 5 minutes on a mechanical stirrer.” left out
as §4

[3] = tested on: A-549; test: In vitro cytotoxicity against human cancer cell lines (sulforhodamine B), A-549
Description: as §1, §2, §3, §4

[4] = tested on: SiHa; test: In vitro cytotoxicity against human cancer cell lines (sulforhodamine B), SiHa
Description: as §1, §2, §3, §4

[5] = tested on: HOP-62; test: In vitro cytotoxicity against human cancer cell lines (sulforhodamine B), HOP-62
Description: as §1, §2
as §3, with “The plates were washed five times with distilled water to remove TCA, growth medium low molecular weight metabolites, serum proteins etc and air-dried.” left out, “The adsorbed dye was dissolved in Tris-Buffer (100 m l, 0.01M, pH 10.4) and plates were gently stirred for 5 minutes on a mechanical stirrer.” left out
as §4

[6] = HT-29, concentration 10-4 mol/L
[7] = HT-29, concentration 10-5 mol/L
[8] = HT-29, concentration 10-6 mol/L
[9] = HCT-15, concentration 10-5 mol/L
[10] = HCT-15, concentration 10-6 mol/L
[11] = A-549, concentration 10-4 mol/L
[12] = A-549, concentration 10-5 mol/L
[13] = A-549, concentration 10-6 mol/L
[14] = HOP-62, concentration 10-5 mol/L
[15] = HOP-62, concentration 10-6 mol/L

| SMILES | percentage growth inhibition [1, 6] | percentage growth inhibition [1, 7] | percentage growth inhibition [1, 8] | percentage growth inhibition [2, 9] | percentage growth inhibition [2, 10] | percentage growth inhibition [3, 11] | percentage growth inhibition [3, 12] | percentage growth inhibition [3, 13] | percentage growth inhibition ([4]; concentration 10-4 mol/L) | percentage growth inhibition ([4]; concentration 10-5 mol/L) | percentage growth inhibition ([4]; concentration 10-6 mol/L) | percentage growth inhibition [5, 14] | percentage growth inhibition [5, 15] |
| --- | --- | --- | --- | --- | --- | --- | --- | --- | --- | --- | --- | --- | --- |
| COc1cc2c(cc1OCCCCC(=O)Nc1cccc3c1C(=O)c1ccccc1C3=O)N=C[C@@H]1CCCN1C2=O [compound Vc, 7-Methoxy-8-[N-(9,10-dihydro-9,10-dioxo-1-anthracenyl)-butane-4-carboxamide]-oxy-(11aS)-1,2,3,11a tetrahydro-5H-pyrrolo [2,1-c][1,4]benzodiazepin-5-one] | 93% | 87% | 73% | 82% | 61% | 93% | 10% | 56% | 73% | 49% | 40% | 97% | 73% |
| COc1cc2c(cc1OCCCC(=O)Nc1cccc3c1C(=O)c1ccccc1C3=O)N=C[C@@H]1CCCN1C2=O [compound Va, 7-Methoxy-8-[N-(9,10-dihydro-9,10-dioxo-1-anthracenyl)-propane-3-carboxamide]-oxy-(11aS)-1,2,3,11a tetrahydro-5H-pyrrolo[2,1-c][1,4]benzodiazepin-5-one] | 93% | 86% | 68% | 66% | 59% | 93% | 27% | 47% | 57% | 52% | 41% | 90% | 74% |

From patent US7173026B2, “Pyrrolo [2,1-c][1,4]benzodiazepine-anthraquinone conjugates useful as antitumour agents” (Council of Scientific and Industrial Research, priority 2004, dated 2007)
